# Measured values as given in patent US20260355225A1 (priority 2022, published 2026).
# Values joined by “and” are separate entries in the source; they are usually repeats but may differ in a detail not shown here. Equal entries are not always repeated.
# What was measured:
# [1] = Cytotoxicity of D-xylose, MTT assay, absence of viral infection (Example 1); assay type: cell-based; conditions: monkey, vero cells
# Experimental: (§1) Cells (Vero E6) were used, with two modes of administration: either at the same time or 6 h before infection with SARS-CoV-2 (isolated early).
# (§2) The readout for this test is CPE, so the infection will be stopped at 72 hpi (hours post-infection), and the compound will remain for the duration of the experiment. In parallel, the cytotoxicity of the same compound concentrations will be tested in the absence of viral infection.
# (§3) The day before the experiment, the 8,000 cells/well are seeded in two 96-well plates (clear, Sarstedt), one for the antiviral study and one for the cytotoxicity study.
# (§4) 134.4 μl of the 1 M composition is transferred to 1,465.6 μl of infection medium (=84 mM, twice the final maximum concentration).
# (§5) Next, the cell support in the cytotoxicity plate is removed.
# (§6) Immediately afterwards, 50 μl of undiluted infection medium is added to all the wells.
# (§7) Next, 50 μl of infection medium without diluent is added to columns 4 to 6.
# (§8) Next, the plate is incubated at 37 °C, 5% CO2 for 48 h.
# (§9) After 72 h, when the CPE is evident, an MTT assay is performed for the antiviral and cytotoxicity plates.
# Vero AD cells = assay: as above; assay type: cell-based; conditions: 6 h pre-treatment
# Experimental: as §1, §2, §3, §4, §5, §6, §7, §8, §9
# [2] = according to Sigma cat #1.08689; cited from earlier work
# cells = conditions: cited from earlier work
# [3] = tested on: glycated hemoglobin (HbA1c); conditions: healthy person; cited from earlier work
# [4] = D-xylose absorption tests; cited from earlier work
# glycosaminoglycans = conditions: fibroblasts, keranocytes, CHO, BHK, BAE and other cells; cited from earlier work
# [5] = Cytotoxicity of D-xylose alone or + insulin, MTT assay, absence of viral infection (Example 2); conditions: human, hela tzmbl cells
# HeLa TZMBL cells = assay: as above; conditions: for Cytotoxicity percentage / Viability percentage: 2880 min
# [6] = Antiviral assay against HIV-1 NL4-3, percentage of infected cells by immunofluorescence (Example 2); conditions: human, hela tzmbl cells, Viability Percentages, D-xylose 104.000 mM, replicate wells
# HIV-1 NL4-3 = assay: as above; conditions: Human immunodeficiency virus 1, NL43, 48 h
# SARS-CoV-2 = assay: Antiviral assay, inhibition of virus-induced cytopathic effect (CPE) of SARS-CoV-2 by MTT assay (Example 1); conditions: for Viability percentage: 4320 min
smiles,measurement,setting,value
O=C[C@H](O)[C@@H](O)[C@H](O)CO [D-xylose],viability at 328.125 µM,"[1]; 6 h pre-treatment, 0.328125 mM, read-out: Viability percentage",130%
same,viability at 656.25 µM,"[1]; 6 h pre-treatment, 0.65625 mM, read-out: Viability percentage",90.9%
same,viability at 1312.5 µM,"[1]; 6 h pre-treatment, 1.3125 mM, read-out: Viability percentage",122%
same,viability at 2625 µM,"[1]; 6 h pre-treatment, 2.625 mM, read-out: Viability percentage",108%
same,viability at 5250 µM,"[1]; 6 h pre-treatment, 5.25 mM, read-out: Viability percentage",115%
same,viability at 10500 µM,"[1]; 6 h pre-treatment, 10.5 mM, read-out: Viability percentage",109%
same,viability at 21000 µM,"[1]; 6 h pre-treatment, 21 mM, read-out: Viability percentage",110%
same,viability at 42000 µM,"[1]; 6 h pre-treatment, 42 mM, read-out: Viability percentage",108%
same,CC50,"[1]; MTT, no virus",> 42 mM
same,Viability percentage,"Vero AD cells; 0.328125 mM, 328.125 µM",119.81%
same,Viability percentage,"Vero AD cells; 0.65625 mM, 656.25 µM",100.84% and 108.33%
same,Cytotoxicity percentage,"Vero AD cells; 1.3125 mM, 1312.5 µM",−21.81% and −24.31% and −17.82%
same,Viability percentage,"Vero AD cells; 1.3125 mM, 1312.5 µM",124.31% and 117.82%
same,Viability percentage,"Vero AD cells; 2.625 mM, 2625 µM",118.32% and 114.82%
same,Cytotoxicity percentage,"Vero AD cells; 5.25 mM, 5250 µM",−15.32% and −18.81% and −10.83%
same,Viability percentage,"Vero AD cells; 5.25 mM, 5250 µM",118.81% and 110.83%
same,Cytotoxicity percentage,"Vero AD cells; 10.5 mM, 10500 µM",−9.33% and −10.83% and −6.33%
same,Viability percentage,"Vero AD cells; 10.5 mM, 10500 µM",110.83% and 106.33%
same,Cytotoxicity percentage,"Vero AD cells; 21 mM, 21000 µM",−9.83% and −10.33%
same,Viability percentage,"Vero AD cells; 21 mM, 21000 µM",110.33%
same,Cytotoxicity percentage,"Vero AD cells; 42 mM, 42000 µM",−7.83% and −9.83% and −3.34%
same,Viability percentage,"Vero AD cells; 42 mM, 42000 µM",103.34%
same,solubility,[2],550 mg/mL
same,xylose in cytosol at equilibrium,cells; in the presence of insulin,80%
same,xylose in plasma at equilibrium,cells; in the presence of insulin,20%
same,increase of penetration rate of D-xylose into the cells,cells; with insulin,two to five times
same,effect on glycated hemoglobin (HbA1c) levels,[3],little or no effect
same,side effects,[4],"laxative effects in adults, diarrhea, nausea, and vomiting"
same,stimulation of glycosaminoglycans,glycosaminoglycans,proven glycosaminoglycan stimulators of several cell types
same,"cytotoxicity at 48 h, 3250 µM","[5]; Cytotoxicity percentage, D-xylose 3.25 mM",5.24%
same,"cytotoxicity at 48 h, 26000 µM","[5]; Cytotoxicity percentage, D-xylose 26 mM",9.04%
same,"cytotoxicity at 48 h, 52000 µM","[5]; Cytotoxicity percentage, D-xylose 52 mM",12.1%
same,"cytotoxicity at 48 h, 104000 µM","[5]; Cytotoxicity percentage, D-xylose 104 mM",14.1%
same,"viability at 48 h, 1625 µM","[5]; Viability percentage, D-xylose 1.625 mM",99.5%
same,"viability at 48 h, 3250 µM","[5]; Viability percentage, D-xylose 3.25 mM",94.8%
same,"viability at 48 h, 6500 µM","[5]; Viability percentage, D-xylose 6.5 mM",89.8%
same,"viability at 48 h, 13000 µM","[5]; Viability percentage, D-xylose 13 mM",90.1%
same,"viability at 48 h, 26000 µM","[5]; Viability percentage, D-xylose 26 mM",91%
same,"viability at 48 h, 52000 µM","[5]; Viability percentage, D-xylose 52 mM",87.9%
same,"viability at 48 h, 104000 µM","[5]; Viability percentage, D-xylose 104 mM",85.9%
same,median cytotoxic concentration (TC50),"HeLa TZMBL cells; 48 h, MTT",260.3
same,Results for Cytotoxicity (MTT readout),HeLa TZMBL cells; D-xylose 1.625 mM,2.399 and 2.351 and 2.424
same,Cytotoxicity percentage,"HeLa TZMBL cells; D-xylose 1.625 mM, 1625 µM",0.47% and 2.50% and −0.58%
same,Viability percentage,"HeLa TZMBL cells; D-xylose 1.625 mM, 1625 µM",97.50% and 100.58%
same,Results for Cytotoxicity (MTT readout),HeLa TZMBL cells; D-xylose 3.25 mM,2.286 and 2.266 and 2.242
same,Cytotoxicity percentage,"HeLa TZMBL cells; D-xylose 3.25 mM, 3250 µM",6.09% and 7.10%
same,Viability percentage,"HeLa TZMBL cells; D-xylose 3.25 mM, 3250 µM",93.91% and 92.90%
same,Results for Cytotoxicity (MTT readout),HeLa TZMBL cells; D-xylose 6.5 mM,2.168 and 2.211 and 2.316
same,Cytotoxicity percentage,"HeLa TZMBL cells; D-xylose 6.5 mM, 6500 µM",10.22% and 8.41% and 3.98%
same,Viability percentage,"HeLa TZMBL cells; D-xylose 6.5 mM, 6500 µM",91.59% and 96.02%
same,Results for Cytotoxicity (MTT readout),HeLa TZMBL cells; D-xylose 13 mM,2.175 and 2.293 and 2.032
same,Viability percentage,"HeLa TZMBL cells; D-xylose 13 mM, 13000 µM",95.05% and 84.04%
same,Results for Cytotoxicity (MTT readout),HeLa TZMBL cells; D-xylose 26 mM,2.196 and 2.137 and 2.158
same,Cytotoxicity percentage,"HeLa TZMBL cells; D-xylose 26 mM, 26000 µM",11.53% and 10.64%
same,Viability percentage,"HeLa TZMBL cells; D-xylose 26 mM, 26000 µM",88.47% and 89.36%
same,Results for Cytotoxicity (MTT readout),HeLa TZMBL cells; D-xylose 52 mM,2.123 and 2.266 and 2.199
same,Cytotoxicity percentage,"HeLa TZMBL cells; D-xylose 52 mM, 52000 µM",6.09% and 8.91%
same,Viability percentage,"HeLa TZMBL cells; D-xylose 52 mM, 52000 µM",93.91% and 91.09%
same,Results for Cytotoxicity (MTT readout),HeLa TZMBL cells; D-xylose 104 mM,2.075 and 2.027 and 2.064
same,Cytotoxicity percentage,"HeLa TZMBL cells; D-xylose 104 mM, 104000 µM",16.17% and 14.61%
same,Viability percentage,"HeLa TZMBL cells; D-xylose 104 mM, 104000 µM",83.83% and 85.39%
same,"viability at 48 h, 104000 µM",[6],20.8%
same,activity at 1625 µM,"HIV-1 NL4-3; read-out: % Infection, D-xylose 1.625 mM, replicate wells",20.8%
same,activity at 3250 µM,"HIV-1 NL4-3; read-out: % Infection, D-xylose 3.250 mM, replicate wells",20.4%
same,activity at 6500 µM,"HIV-1 NL4-3; read-out: % Infection, D-xylose 6.500 mM, replicate wells",18.1%
same,activity at 13000 µM,"HIV-1 NL4-3; read-out: % Infection, D-xylose 13.000 mM, replicate wells",20.4%
same,activity at 26000 µM,"HIV-1 NL4-3; read-out: % Infection, D-xylose 26.000 mM, replicate wells",20.6%
same,activity at 52000 µM,"HIV-1 NL4-3; read-out: % Infection, D-xylose 52.000 mM, replicate wells",20.2%
same,activity at 104000 µM,"HIV-1 NL4-3; read-out: % Infection, D-xylose 104.000 mM, replicate wells",14.9%
same,absorbance at 570 nm,"SARS-CoV-2; 6 h pre-treatment, 0.328125 mM",0.067 and 0.073 and 0.088
same,absorbance at 570 nm,"SARS-CoV-2; 6 h pre-treatment, 0.65625 mM",0.08 and 0.081 and 0.085
same,Viability percentage,"SARS-CoV-2; 6 h pre-treatment, 0.65625 mM, 656.25 µM",−8.66% and −7.49% and −2.79%
same,absorbance at 570 nm,"SARS-CoV-2; 6 h pre-treatment, 1.3125 mM",0.08 and 0.099 and 0.091
same,absorbance at 570 nm,"SARS-CoV-2; 6 h pre-treatment, 2.625 mM",0.075 and 0.121 and 0.124
same,absorbance at 570 nm,"SARS-CoV-2; 6 h pre-treatment, 5.25 mM",0.087 and 0.106 and 0.098
same,absorbance at 570 nm,"SARS-CoV-2; 6 h pre-treatment, 10.5 mM",0.102 and 0.096
same,absorbance at 570 nm,"SARS-CoV-2; 6 h pre-treatment, 21 mM",0.116 and 0.109 and 0.098
same,absorbance at 570 nm,"SARS-CoV-2; 6 h pre-treatment, 42 mM",0.095 and 0.09 and 0.108
same,viability at 10500 µM,"SARS-CoV-2; Severe acute respiratory syndrome coronavirus 2, Vero C1008, in Chlorocebus sabaeus, 72 h, read-out: Viability percentage, 6 h pre-treatment, 10.5 mM",17.2%
same,viability at 656.25 µM,"SARS-CoV-2; Severe acute respiratory syndrome coronavirus 2, Vero C1008, in Chlorocebus sabaeus, 72 h, read-out: Viability percentage, at time of infection, 0.65625 mM",10.1%
same,IC50,"SARS-CoV-2; Severe acute respiratory syndrome coronavirus 2, co-administration of D-xylose and SARS-CoV-2",95.5 mM
same,IC50,"SARS-CoV-2; Severe acute respiratory syndrome coronavirus 2, pre-incubation of D-xylose 6 h prior to SARS-CoV-2 infection",26.2 mM
same,absorbance at 570 nm,"SARS-CoV-2; at time of infection, 0.328125 mM",0.088 and 0.087
same,Viability percentage,"SARS-CoV-2; at time of infection, 0.328125 mM, 328.125 µM",0.73% and −0.44%
same,absorbance at 570 nm,"SARS-CoV-2; at time of infection, 0.65625 mM",0.096 and 0.099 and 0.101
same,Viability percentage,"SARS-CoV-2; at time of infection, 0.65625 mM, 656.25 µM",13.66% and 16.01%
same,absorbance at 570 nm,"SARS-CoV-2; at time of infection, 1.3125 mM",0.096 and 0.094 and 0.091
same,Viability percentage,"SARS-CoV-2; at time of infection, 1.3125 mM, 1312.5 µM",7.78% and 4.26%
same,absorbance at 570 nm,"SARS-CoV-2; at time of infection, 2.625 mM",0.141 and 0.113 and 0.103
same,absorbance at 570 nm,"SARS-CoV-2; at time of infection, 5.25 mM",0.09 and 0.137 and 0.126
same,absorbance at 570 nm,"SARS-CoV-2; at time of infection, 10.5 mM",0.109 and 0.131 and 0.107
same,absorbance at 570 nm,"SARS-CoV-2; at time of infection, 21 mM",0.111 and 0.151 and 0.113
same,absorbance at 570 nm,"SARS-CoV-2; at time of infection, 42 mM",0.059 and 0.095 and 0.09
